# Test results taken from patent US20080145858A1, “DETECTION AND IDENTIFICATION OF TOXICANTS BY MEASUREMENT OF GENE […]” (priority 2003, published 2008).
# Test system: Xenopus laevis cleavage stage embryos (stage 8)
# Assay: Xenopus cDNA microarray, differential gene expression after PMA treatment during cleavage stage (Group I)
# Format: in vivo
# Settings: PMA 100 ng/ml, stage 8
# Text: Specifically, the method and screen of the present invention function as follows. EST clones produced from Xenopus laevis unfertilized eggs were used in the present study with ˜1,200 EST clones from a 18,500 EST clone set selected for production of a Xenopus cDNA microarray. The Xenopus microarray was used to measure the effect of chemical treatment on Xenopus embryo gene regulation. The chemical treatment was a phorbol ester, PMA. Xenopus eggs were obtained from females induced for ovulation and fertilized in vitro. Control Xenopus laevis embryos were allowed to develop to stage 8 blastula or stage 15 neurula. Treated embryos were exposed to PMA during cleavage stage or during neurulation with end points of blastula (stage 8) or neurula (stage 15). Specifically, PMA 100 ng/ml was added to the incubation media during cleavage stages for evaluation in stage 8 embryo or PMA was added during neural induction for evaluation in stage 15 embryos. RNA extracted from the embryos was used to generate fluorescent cDNA probes for Xenopus microarray analyses to measure differential gene expression with and without the phorbol ester treatment. Analysis was performed using paired RNA samples to compare PMA-treated and untreated embryos: Group I measured the effects of PMA-treatment during the cleavage stage in stage 8 embryos and Group II measured the effects of PMA-treatment during neurulation in stage 15 embryos. Group III measured the change in gene expression between stage 8 and stage 15 embryos.
# cDNA fragments were obtained by PCR replication of Xenopus laevis unfertilized egg cDNA inserts, purified, quantitated and loaded onto glass chips by robotics. In addition to the selected ˜1,200 genes, 64 lambda Q gene, an internal control cDNA (Genomic Solutions, Inc., Ann Arbor, Mich.) was loaded on the chip. The insert DNA from ˜1,200 clones were PCR amplified using forward and reverse primers (GF.200 primers, Research Genetics, Huntsville, Ala.). A second PCR was carried out using 1 μl of the primary PCR (20 μl) for template. Excess dNTPs, polymerase and other PCR artifacts were removed from the secondary PCR reactions using Millipore Multiscreen plates (Millipore Corporation, Bedford, Mass.) using the standard protocol. The purity of the PCR products was assessed by electrophoresis and documented using an Alphalmager 1000 Digital Imaging System (Alpha Innotech Corporation, San Leandro, Calif.). The DNA obtained by PCR was quantitated using PicoGreen (Molecular Probes, Eugene, Oreg.). The DNA was denatured and arrayed onto amino-silane coated microscope slides (CMT-GAPS coated slides, Corning, Corning, N.Y.) using a Flexys robotic workstation (Genomic Solutions Inc.). The ˜1,200 PCR products were arrayed in duplicate on each slide and cross-linked. Each gene chip contained duplicate cDNA samples.
# Total RNA was prepared from embryos treated in three separate dishes per treatment group that were pooled. Total RNA was isolated from the frog embryos (1,200 embryos for each probe production) using TRIzol extraction (Gibco BRL, Grand Island, N.Y.) and Qiagen RNeasy kits (Qiagen, Valencia, Calif.). The ethanol precipitated RNA was resuspended in RNase-free water, quantitated with RiboGreen (Molecular Probes, Eugene, Oreg.). Total RNA was further purified using oligoTex mRNA maxi kit (Qiagen Co.) with the bound mRNA eluted with minimum volume of elution buffer and precipitated with ethanol. The recovery rate of mRNA by the ethanol precipitation method was ˜70%. Cy3- or Cy5-tagged probes were produced from an mRNA mixture (20 μl) of Xenopus mRNA (5 μg) and lambda Q gene mRNA (3.5 ng) reverse-transcribed with oligo(dT)18-22 primer and dNTPs and the reverse-transcribed cDNA was cross-linked with Cy3 or Cy5 as described in Clontech Atlas™ Glass Fluorescent Labeling kit manual (www.clontech.com). After hydrolysis of the RNA and purification of the probe (Centricon 50, Millipore, Bedford, Mass.), the cDNA in TE buffer was quantitated by absorbance at 260 nm. […]
smiles,measurement,setting,value
"CCCCCCCCCCCCCC(=O)O[C@@H]1[C@@H](C)[C@@]2(O)[C@@H](C=C(CO)C[C@]3(O)C(=O)C(C)=C[C@@H]23)[C@@H]2C(C)(C)[C@]12OC(C)=O [PMA, phorbol 12-myristate 12-acetate]",Normalized by Landmarks (1.59),PBX0140D01 mRNA,3.66
same,Normalized by all Data Points (1.28),PBX0140D01 mRNA,2.94
same,Ratio of Medians (Cy5/Cy3) First Spot,PBX0140D01 mRNA,2.09
same,Ratio of Medians (Cy5/Cy3) Mean,PBX0140D01 mRNA,2.30 ± 0.20
same,Ratio of Medians (Cy5/Cy3) Second Spot,PBX0140D01 mRNA,2.50
same,(CY3/CY5) by Landmarks (1.6),PBX0140F01 mRNA,2.39
same,(CY3/CY5) by all Data Points (1.3),PBX0140F01 mRNA,3.83
same,Normalization by Landmarks (1.6),PBX0140F01 mRNA,0.42
same,Normalization by all Data Points (1.3),PBX0140F01 mRNA,0.26
same,Ratio of Medians (Cy5/Cy3) First Spot,PBX0140F01 mRNA,0.24
same,Ratio of Medians (Cy5/Cy3) Mean,PBX0140F01 mRNA,0.20 ± 0.04
same,Ratio of Medians (Cy5/Cy3) Second Spot,PBX0140F01 mRNA,0.16
same,(CY3/CY5) by Landmarks (1.6),PBX0140H03 mRNA,3.52
same,(CY3/CY5) by all Data Points (1.3),PBX0140H03 mRNA,5.64
same,Normalization by Landmarks (1.6),PBX0140H03 mRNA,0.28
same,Normalization by all Data Points (1.3),PBX0140H03 mRNA,0.18
same,Ratio of Medians (Cy5/Cy3) First Spot,PBX0140H03 mRNA,0.09
same,Ratio of Medians (Cy5/Cy3) Mean,PBX0140H03 mRNA,0.14 ± 0.05
same,Ratio of Medians (Cy5/Cy3) Second Spot,PBX0140H03 mRNA,0.19
same,(CY3/CY5) by Landmarks (1.6),PBX0141B03 mRNA,1.74
same,(CY3/CY5) by all Data Points (1.3),PBX0141B03 mRNA,2.78
same,Normalization by Landmarks (1.6),PBX0141B03 mRNA,0.58
same,Normalization by all Data Points (1.3),PBX0141B03 mRNA,0.36
same,Ratio of Medians (Cy5/Cy3) First Spot,PBX0141B03 mRNA,0.38
same,Ratio of Medians (Cy5/Cy3) Mean,PBX0141B03 mRNA,0.28 ± 0.10
same,Ratio of Medians (Cy5/Cy3) Second Spot,PBX0141B03 mRNA,0.18
same,(CY3/CY5) by Landmarks (1.6),PBX0141F12 mRNA,3.56
same,(CY3/CY5) by all Data Points (1.3),PBX0141F12 mRNA,5.70
same,Normalization by Landmarks (1.6),PBX0141F12 mRNA,0.28
same,Normalization by all Data Points (1.3),PBX0141F12 mRNA,0.18
same,Ratio of Medians (Cy5/Cy3) First Spot,PBX0141F12 mRNA,0.10
same,Ratio of Medians (Cy5/Cy3) Mean,PBX0141F12 mRNA,0.14 ± 0.03
same,Ratio of Medians (Cy5/Cy3) Second Spot,PBX0141F12 mRNA,0.17
same,(CY3/CY5) by Landmarks (1.6),PBX0141G06 mRNA,1.67
same,(CY3/CY5) by all Data Points (1.3),PBX0141G06 mRNA,2.67
same,Normalization by Landmarks (1.6),PBX0141G06 mRNA,0.60
same,Normalization by all Data Points (1.3),PBX0141G06 mRNA,0.38
same,Ratio of Medians (Cy5/Cy3) First Spot,PBX0141G06 mRNA,0.17
same,Ratio of Medians (Cy5/Cy3) Mean,PBX0141G06 mRNA,0.29 ± 0.12
same,Ratio of Medians (Cy5/Cy3) Second Spot,PBX0141G06 mRNA,0.41
same,Normalized by Landmarks (1.59),PBX0141G10 mRNA,4.98
same,Normalized by all Data Points (1.28),PBX0141G10 mRNA,4.01
same,Ratio of Medians (Cy5/Cy3) First Spot,PBX0141G10 mRNA,2.53
same,Ratio of Medians (Cy5/Cy3) Mean,PBX0141G10 mRNA,3.13 ± 0.59
same,Ratio of Medians (Cy5/Cy3) Second Spot,PBX0141G10 mRNA,3.72
same,(CY3/CY5) by Landmarks (1.6),PBX0142E01 mRNA,2.64
same,(CY3/CY5) by all Data Points (1.3),PBX0142E01 mRNA,4.23
same,Normalization by Landmarks (1.6),PBX0142E01 mRNA,0.38
same,Normalization by all Data Points (1.3),PBX0142E01 mRNA,0.24
same,Ratio of Medians (Cy5/Cy3) First Spot,PBX0142E01 mRNA,0.14
same,Ratio of Medians (Cy5/Cy3) Mean,PBX0142E01 mRNA,0.18 ± 0.04
same,Ratio of Medians (Cy5/Cy3) Second Spot,PBX0142E01 mRNA,0.22
same,Normalized by Landmarks (1.59),PBX0142E09 mRNA,4.32
same,Normalized by all Data Points (1.28),PBX0142E09 mRNA,3.48
same,Ratio of Medians (Cy5/Cy3) First Spot,PBX0142E09 mRNA,2.50
same,Ratio of Medians (Cy5/Cy3) Mean,PBX0142E09 mRNA,2.72 ± 0.21
same,Ratio of Medians (Cy5/Cy3) Second Spot,PBX0142E09 mRNA,2.93
same,(CY3/CY5) by Landmarks (1.6),PBX0142H06 mRNA,2.52
same,(CY3/CY5) by all Data Points (1.3),PBX0142H06 mRNA,4.04
same,Normalization by Landmarks (1.6),PBX0142H06 mRNA,0.40
same,Normalization by all Data Points (1.3),PBX0142H06 mRNA,0.25
same,Ratio of Medians (Cy5/Cy3) First Spot,PBX0142H06 mRNA,0.15
same,Ratio of Medians (Cy5/Cy3) Mean,PBX0142H06 mRNA,0.19 ± 0.04
same,Ratio of Medians (Cy5/Cy3) Second Spot,PBX0142H06 mRNA,0.23
same,(CY3/CY5) by Landmarks (1.6),PBX0143C01 mRNA,2.54
same,(CY3/CY5) by all Data Points (1.3),PBX0143C01 mRNA,4.07
same,Normalization by Landmarks (1.6),PBX0143C01 mRNA,0.39
same,Normalization by all Data Points (1.3),PBX0143C01 mRNA,0.25
same,Ratio of Medians (Cy5/Cy3) First Spot,PBX0143C01 mRNA,0.16
same,Ratio of Medians (Cy5/Cy3) Mean,PBX0143C01 mRNA,0.19 ± 0.03
same,Ratio of Medians (Cy5/Cy3) Second Spot,PBX0143C01 mRNA,0.22
same,(CY3/CY5) by Landmarks (1.6),PBX0143D10 mRNA,1.57
same,(CY3/CY5) by all Data Points (1.3),PBX0143D10 mRNA,2.51
